In patent publication US20230219957A1, “SMALL MOLECULE CB002-ANALOGES RESTORE THE P53 PATHWAY AND TARGET S-PHASE CHECKPOINT” (Brown University, priority 2020, published 2023):

Experiments:
SW480 shNoxa cells = assay: Tumor xenograft efficacy in NSG mice, Noxa knockdown; type: in vivo; conditions: compared to vehicle control
Experimental: Knockdown expression of NOXA by lentivirus infection. A NOXA shRNA plasmid construct was amplified according to the manufacturers recommendation (TRC Lentiviral Human PMAIP1 shRNA, Dharmacon). Plasmid DNA was isolated using the PureLink® HiPure Plasmid Filter Maxiprep Kit (Invitrogen) according to the manufacturers instructions. Lentivirus production was performed by transfecting HEK293T cells at a density of 8×10^6 cells per 10-cm dish with 1.6 μg pMD2.G envelope plasmid, 3.2 μg psPAX2 packaging vector, 3.2 μg plasmid DNA, and 24 μL of Lipofectamine® Transfection reagent 2000 (Life Technologies) in a total volume of the reaction of 1 mL of antibiotic-free DMEM media for 6-10 hours. The media was then replaced with antibiotic-free DMEM. Lentiviral particles were collected between forty-eight to seventy-two hours. SW480 cells ([…] cells per well in a 12-well plate) were infected 1:1 (virus-containing media: antibiotic-free DMEM media, total volume 1 mL) for twenty-four hours. Then, the media was replaced with DMEM complete media for an additional twenty-four hours. […]
Drug efficacy using in vivo tumor xenografts. […] Mouse weight and tumor measurements were recorded one-two times per week. Tumor volume was calculated as V=0.5*L*W^2, where L is length and W is the width of the tumor. […]

SW480 colon cancer cells = assay: Label-free quantitative proteomic analysis; type: cell-based, human; conditions: twenty-four hours
Experimental: Proteomic analysis. SW480 cells were seeded at a density of 1×10^6 in 10 cm dishes and treated with dimethyl sulfoxide vehicle control or CB002-analog #4 for twenty-four hours. Floating cells were collected. Adherent cells were trypsinized. Cells were spun down and washed with phosphate-buffered saline. The pelleted cells were frozen and submitted for LC-MS/MS identification and comparative analysis at the Center for Cancer Research Development, Proteomics Core Facility at the Rhode Island Hospital. Samples (cell pellets) were lysed with a lysis buffer (8M urea, 1 mM sodium orthovanadate, 20 mM HEPES, 2.5 mM sodium pyrophosphate, 1 mM β-glycerophosphate, pH 8.0, twenty minutes, 4° C.) followed by sonication at 40% amplification by using a microtip sonicator (QSonica, LLC, Model no. Q55) and cleared by centrifugation (14,000×g, fifteen minutes, 15° C.). Protein concentration was measured (Pierce BCA Protein Assay, Thermo Fisher Scientific, Waltham, Mass., USA). A total of 100 μg of protein per sample was subjected to trypsin digestion. Tryptic peptides were desalted using C18 Sep-Pak plus cartridges (Waters, Milford, Mass., USA) and were lyophilized for forty-eight hours to dryness. […]
Sample preparation for LC-MS/MS analysis. […] Protein concentration was measured (Pierce BCA Protein Assay, Thermo Fisher Scientific) and 100 μg of protein per sample was subjected for trypsin digestion. […]

## Cn1c(=O)c2[nH]c(Nc3cccc(C(F)(F)F)c3)nc2n(C)c1=O [CB002-analog #4]
SW480 shNoxa cells
  tumor volume: did not differ in tumor volume
SW480 colon cancer cells
  CDK4, CKS1B, ERCC6L, MAPK3, and MAX protein abundance: decreased
